In article PMC12678836, “Screening for dual-target enzyme inhibitors derived from Gardenia jasminoides roots, a medicinal and edible plant: investigation of their potential anti-dementia activity” (Frontiers in Nutrition, 2025):
Read-outs that look alike come from different tables or passages of the source.

Experiments:
5-LOX [1] = target: T1, 5-LOX (Glycine max, UniProt P08170); assay: Affinity ultrafiltration-HPLC binding degree to 5-LOX; details: GJR extract, 37 °C 30 min
T1 sequence (P08170 1-839): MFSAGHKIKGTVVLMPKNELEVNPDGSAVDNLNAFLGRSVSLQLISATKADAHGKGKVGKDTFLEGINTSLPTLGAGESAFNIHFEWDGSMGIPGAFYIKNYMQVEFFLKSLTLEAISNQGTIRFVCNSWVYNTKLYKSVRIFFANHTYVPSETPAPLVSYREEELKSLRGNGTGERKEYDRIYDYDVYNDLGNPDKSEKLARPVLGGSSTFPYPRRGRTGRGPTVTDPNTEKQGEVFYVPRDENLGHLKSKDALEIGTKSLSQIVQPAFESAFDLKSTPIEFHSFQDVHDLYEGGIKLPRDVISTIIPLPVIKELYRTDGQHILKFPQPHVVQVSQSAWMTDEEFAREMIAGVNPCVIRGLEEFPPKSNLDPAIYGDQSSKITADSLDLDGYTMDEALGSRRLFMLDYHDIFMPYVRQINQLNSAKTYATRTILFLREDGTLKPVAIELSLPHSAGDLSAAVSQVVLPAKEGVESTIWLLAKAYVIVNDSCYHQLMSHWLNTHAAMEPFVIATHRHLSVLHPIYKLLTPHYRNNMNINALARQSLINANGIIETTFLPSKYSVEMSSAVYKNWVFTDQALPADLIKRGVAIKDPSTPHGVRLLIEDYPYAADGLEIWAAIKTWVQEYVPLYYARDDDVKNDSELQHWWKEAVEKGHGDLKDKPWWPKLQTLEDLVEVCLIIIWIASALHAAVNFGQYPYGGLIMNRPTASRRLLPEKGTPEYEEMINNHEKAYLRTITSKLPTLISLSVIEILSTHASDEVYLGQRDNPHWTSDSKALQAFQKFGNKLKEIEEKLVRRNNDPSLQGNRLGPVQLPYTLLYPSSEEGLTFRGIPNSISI
Procedure: (§1) A total of 300 g of GJR was accurately weighed, dried, and ground into a fine powder using a mechanical grinder. The powdered material was extracted with 60% ethanol (v/v) at a solvent-to-solid ratio of 20:1 (v/v). Each extraction cycle involved ultrasonication for 1 h and was performed twice to ensure exhaustive extraction. The combined extracts were concentrated to dryness by rotary evaporation under reduced pressure, yielding 6.75 g of crude extract. A 50 mg portion of the crude extract was accurately weighed, dissolved in 50% methanol–water (v/v), and diluted to a final concentration of 50 mg/ml to obtain a stock solution for subsequent experiments. All procedures were conducted under controlled laboratory conditions to ensure consistency and reproducibility.
(§2) The screening assay consisted of two groups: a blank control and an experimental group, both prepared in phosphate-buffered saline (PBS). In the experimental group, 10.0 μl of the sample solution was mixed with 90.0 μl of either 5-lipoxygenase (5-LOX) and acetylcholinesterase (AChE) at final concentrations of 0.5, 1.0, or 2.0 U/ml, along with 100 μl of PBS (pH 7.4), resulting in a total volume of 200 μl. The mixture was incubated at 37 °C for 30 min and subsequently filtered through a 100 kDa ultrafiltration membrane by centrifugation at high speed for 10 min. The supernatant was discarded, and the membrane was washed three times with PBS to remove free or non-specifically bound compounds. Then, 150 μl of 50% methanol–water was added to denature the proteins and release the bound small molecules. For the blank control, the enzyme solution was replaced with an equal volume of PBS, while all other experimental conditions remained the same. The resulting eluate was analyzed by HPLC. The binding degree (BD) was used to quantify the interaction between compounds and the target enzymes. It was calculated based on the increase in chromatographic peak area of enzyme-bound compounds, using the following formula: […]

AChE [2] = target: T2, AChE (Musca domestica, UniProt A0ABM3VDL1); assay: Affinity ultrafiltration-HPLC binding degree to AChE; parameters: species or system fly; details: GJR extract, 37 °C 30 min
Procedure: as §1, §2

5-LOX [3] = target: T1, 5-LOX; assay: 5-LOX enzyme inhibition and inhibition kinetics (linoleic acid substrate, HPLC); format: biochemical; details: Lineweaver-Burk / rate vs enzyme concentration
Text: Galantamine served as the positive control.

AChE [4] = target: T2, AChE
Procedure: Acetylcholinesterase (AChE, EC 3.2.1.20) was extracted from fly heads.
All reagents were prepared with 0.05 mol/L phosphate buffer solution at pH 6.8. […] Before use, it was diluted to 0, 5, 10, 15, and 20 × 10^−5 mol/L. 5-LOX and linoleic acid were, respectively prepared at concentrations of 2.08 × 10^−7 and 5.0 × 10^−4 mol/L. AChE and iodinated thioacetylcholine were prepared using the same method.
The mixture was incubated for 10 min at 37 °C in a thermostatic water bath to form the enzyme reaction solution, followed by the addition of linoleic acid (5.0 × 10^−4 mol/L) as the substrate. […] For the AChE assay, 0.1 ml of DTNB solution was included in the reaction mixture and incubated under the same conditions as those used in the 5-LOX experiment, while all other procedural steps remained identical. The control group was not supplemented with samples, while the blank group received an equal volume of buffer solution in place of the enzyme solution. […] Enzyme activity in the absence of any inhibitor was regarded as 100%.
By analyzing the correlation between reaction rate and enzyme concentration, a kinetic curve was generated.
Data analysis was carried out using Origin 8.0 software through one-way ANOVA, with each sample group subjected to three independent replicate experiments (p < 0.05).

T2 sequence (A0ABM3VDL1 81-660): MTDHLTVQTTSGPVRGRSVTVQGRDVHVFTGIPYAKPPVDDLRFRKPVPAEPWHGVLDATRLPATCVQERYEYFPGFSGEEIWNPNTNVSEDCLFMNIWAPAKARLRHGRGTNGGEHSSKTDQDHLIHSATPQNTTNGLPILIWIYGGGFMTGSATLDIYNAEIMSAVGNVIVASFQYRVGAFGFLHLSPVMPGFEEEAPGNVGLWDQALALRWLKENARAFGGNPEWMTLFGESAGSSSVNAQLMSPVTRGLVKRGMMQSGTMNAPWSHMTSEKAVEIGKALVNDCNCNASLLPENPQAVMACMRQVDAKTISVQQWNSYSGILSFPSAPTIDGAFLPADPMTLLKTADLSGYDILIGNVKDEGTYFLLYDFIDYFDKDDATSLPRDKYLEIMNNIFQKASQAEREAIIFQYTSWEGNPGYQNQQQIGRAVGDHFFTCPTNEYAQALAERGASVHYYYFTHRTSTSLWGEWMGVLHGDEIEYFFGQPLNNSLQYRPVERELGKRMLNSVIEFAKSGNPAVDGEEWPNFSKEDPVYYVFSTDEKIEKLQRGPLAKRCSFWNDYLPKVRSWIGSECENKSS

Compound | BD (binding degree) with 5-LOX (5-LOX [1]; 5-LOX 0.5 U/ml) | BD (binding degree) with 5-LOX (5-LOX [1]; 5-LOX 1.0 U/ml) | BD (binding degree) with 5-LOX (5-LOX [1]; 5-LOX 2.0 U/ml) | BD (binding degree) with AChE (AChE [2]; AChE 0.5 U/ml) | BD (binding degree) with AChE (AChE [2]; AChE 1.0 U/ml) | BD (binding degree) with AChE (AChE [2]; AChE 2.0 U/ml) | Inhibition type for 5-LOX (5-LOX [3]) | Inhibition type for 5-LOX (5-LOX [3]; listed as mussaenoside acid) | Kis, AChE (AChE [4]; Lineweaver-Burk) | Inhibition type for AChE (AChE [4]; concentration exceeds 10 × 10^−5 mol/L) | Inhibition type for AChE (AChE [4]; concentrations below 5 × 10^−5 mol/L) | Inhibition type for AChE (AChE [4]; overall statement in conclusion)
COc1cc(C2OCC3C(c4cc(OC)c(OC5OC(CO)C(O)C(O)C5O)c(OC)c4)OCC23)cc(OC)c1OC1OC(CO)C(O)C(O)C1O (stereo not drawn) [Eleutheroside E] | 38.17% | 55.16% | 59.44% | 12.19% | 21.06% | 69.87% | – | – | – | – | – | –
C[C@]1(O)CC[C@@H]2C(C(=O)O)=CO[C@@H](O[C@@H]3O[C@H](CO)[C@@H](O)[C@H](O)[C@H]3O)[C@@H]21 [Mussaenoside acid] | – | – | – | – | – | – | competitive inhibition | reversible inhibition | 102.08 | mixed-type inhibition | competitive inhibition | mixed-type inhibition
